{
  "source": "patent US20250075218A1",
  "about": "“HIF1A OR GLUT1 INHIBITION IN INFLAMMATORY SKIN DISEASES” (New York University, priority 2023, published 2025)",
  "key": {"IMQ-treated murine skin": {"system": "IMQ-treated murine skin", "assay": "Lactate Secretion Assay of ex vivo murine back skin culture", "type": "cell-based, mouse", "details": "2-DG 50 mM, 24 hours culture", "protocol": "To examine lactate levels in inflamed skin, full thickness biopsies of IMQ-treated or control skin were cultured for 24 hours, in the presence or absence of glycolysis inhibitor 2DG, and measured lactate in the culture supernatant (FIG. 13A). […] 4 mm full-thickness punch biopsies from IMQ-treated or healthy murine skin were secured with matrigel in 12-well plate and cultured for 24 hours in 400 μl of Dulbecco's Modified Eagle Medium (DMEM) with 10% Fetal Bovine Serum (FBS). For inhibitor studies, cultures were treated with 2-DG (50 mM). At the end of 24 hours, supernatant was collected, centrifuged at 1000 g to pellet debris, and stored in −80C until further use. Lactate was measured using the colorimetric L-Lactate Assay Kit (Abcam)."}, "uninflamed skin": {"system": "uninflamed skin", "details": "for epidermal HIF1α levels (K14+HIF1α+ cells): topical on uninflamed skin for six days", "procedure": "To examine if HIF1α is sufficient to promote epithelial pathology in the absence of inflammation, a HIF1α activator, FG-4592, was used (Wu et al., 2016). […] Animal drug treatments. EdU pulse: Mice were injected intraperitoneally with EdU (50 μg/g) (Thermo Scientific) three hours prior to sacrifice. PIM HCl: Pimonidazole Hydrochloride (PIM HCl, hypoxyprobe) was injected intraperitoneally into mice (20 mg/kg) two hours prior to sacrifice. BAY 87-2243: BAY 87-2243 (2 mg/ml, Selleck Chemicals) was first dissolved in DMSO and then diluted in a water-based gel. This gel was topically applied to dorsal skin daily starting two days prior to imiquimod application and continuing in parallel with imiquimod application until analysis. Sodium Oxamate: Sodium oxamate (70 mg/ml, Cayman Chemicals) was first dissolved in H2O and then diluted in a water-based gel. This gel was topically applied to dorsal skin daily starting either on the first or fourth day of imiquimod application and continuing in parallel with imiquimod application until analysis. Syrosingopine: Syrosingopine (10 mg/ml, Cayman Chemicals) was first dissolved in DMSO and then diluted in a water-based gel. […] Sections were blocked and stained with primary and secondary fluorescence-conjugated antibody. […] Pimonidazole Hydrochloride (PIM HCl) was detected by pretreating slides with a mouse-on-mouse immunodetection kit (Vector Laboratories) and then staining with biotin-anti-PIM adduct antibodies as per the manufacturer's guidelines (Hypoxyprobe). Data were analyzed using ImageJ software. Epidermal thickness was quantified by measuring K14^+ thickness with an in-house ImageJ macro. Thickness of keratin 6 (K6) and glucose transporter 1 (Glut1) layer was quantified by measuring K6^+K14^+ and Glut1^+K14^+ thickness with an ImageJ macro. The number of CD3 and EdU positive cells was quantified using ImageJ software and normalized per dermis area and length of epidermis, respectively."}, "[1]": {"system": "imiquimod (IMQ) PsO murine model", "assay": "Imiquimod (IMQ) PsO murine model with topical inhibitor treatment", "type": "in vivo, mouse", "details": "for cutaneous Type 17 immunity: interventional treatment after establishment of inflammation at day 3 of IMQ; for Type 17 cytokines (Il17a, Il22, Il23a, Il1b, Tnfa): topical during the course of IMQ treatment; for cutaneous T cell numbers (dermal CD3+ cells) / epithelial (epidermal) thickness: topical from first day, during the course of IMQ treatment", "procedure": "Murine models of psoriatic inflammation. Topical imiquimod application: For imiquimod studies, seven- to eight-week-old mice in telogen (resting phase of hair cycle) were anesthetized with isoflurane prior to hair removal and imiquimod treatment on dorsal skin. 50 mg of imiquimod cream (5%, Perrigo) was applied to shaved dorsal skin, and application was repeated up to six days as previously described (van der Fits et al., 2009). Intradermal rmIL-23 injection: For recombinant murine (rm) IL-23 studies, the ear pinnae in 8-week-old mice were intradermally injected with either rmIL-23 (500 ng in 20 μl of PBS, carrier-free, PeproTech) or PBS control for five days. Animal drug treatments. […] Murine skin immunofluorescence and image analyses. […] Nuclei were stained with DAPI. […] Data were analyzed using ImageJ software."}, "epidermal HIF1α": {"system": "epidermal HIF1α", "assay": "Immunofluorescence of PsO lesions before and after etanercept", "type": "in vivo, human", "details": "n=10", "procedure": "(§1) When compared to contralateral non-lesional skin, the PsO lesion was enriched for HIF1A, IL17RA, and IL17RC (FIGS. 3B and 8H). […] As a complementary analysis, HIF1α protein expression was measured in a cohort of 10 patients treated with etanercept (anti-TNFα) that achieved response (PASI 75 or greater) at 12 weeks (Table 2) (Stinco et al., 2019). […] Collectively, these analyses make a compelling argument for exuberant IL-17A signaling and subsequent HIF1α induction in fueling a pathological epithelial state that is resolved following successful biologic therapy, irrespective of cytokine target.\nHuman skin immunofluorescence and image analyses. Four-micron paraffin-embedded sections were stained either with hematoxylin and eosin or with Akoya Biosciences® Opal™ multiplex automation kit on a Leica BondRX® autostainer, according to manufacturers' instructions. Semi-automated image acquisition was performed on a Vectra® Polaris multispectral imaging system. After whole slide scanning at 20× the tissue was manually outlined to select fields for spectral unmixing using InForm® version 2.4.11 software from Akoya Biosciences."}, "PsO patients": {"system": "PsO patients", "assay": "Clinical metrics of PsO patients over course of etanercept (anti-TNFα) therapy", "type": "in vivo, human", "set-up": "BSA: unit not given here", "procedure": "as §1"}, "PsO lesional human skin": {"system": "PsO lesional human skin", "assay": "Ex vivo culture of human PsO lesional biopsies, bulk RNA-seq", "description": "Therefore, an ex vivo “trial in a dish” system was devised to test the effects of HIF1α inhibition on PsO lesional human skin. Lesional biopsies were obtained from 5 PsO patients that were either therapy-naïve or non-responsive to biologic therapy (Table 3). […] Surgical foreskin discards were used as healthy control skin and subject to the same treatment regimens.\nHuman skin culture. 4 mm full-thickness punch biopsies from lesional psoriatic skin and healthy skin (foreskin) were cut into […], secured with matrigel in 24-well plate and cultured within a maximum of 24-hours after removal from the patient. Each biopsy piece was subjected to different treatment conditions: (1) DMSO vehicle, (2) 10 μM of BAY87-2243, and (3) 500 nM of calcipotriol and 5 μM of betamethasone dipropionate (standard of care). The tissue was cultured in 24-well plates in 500 μl of Dulbecco's Modified Eagle Medium (DMEM) with 10% Fetal Bovine Serum (FBS). After 24 hours of culture, tissues were flash-frozen in liquid nitrogen and stored in −80° C. until RNA extraction. Total RNA was extracted using the RNeasy Fibrous Tissue Mini Kit (Qiagen) per manufacturer's instructions. Libraries were generated with Ribo-Zero Plus rRNA Depletion Kit (Illumina) and sequenced on Novaseq 6000 system with 100-bp paired-end reads.\nLow-input bulk-RNA sequencing of human and murine skin. For human studies, skin biopsies were flash-frozen in liquid nitrogen following culture and treatment modalities. […] Libraries were generated with Ribo-Zero Plus rRNA Depletion Kit (Illumina) and sequenced on Novaseq 6000 system with 100-bp paired-end reads. […] Reads were trimmed for adapter sequences using trimmomatic (version 0.36) in paired end mode with the minimal read length option set to 35 base pairs, trailing set to 5, and the sliding window set to 4:15. Sequencing reads were aligned to the mouse genome (mm10/GRCm38) and human genome (hg38) using the splice-aware STAR aligner (Dobin et al, 2013). […]"}, "[2]": {"details": "vs vehicle, listed as MCT1/MCT4 inhibitor"}, "[3]": {"details": "treatment begins on day 3 of IMQ application, up to day 6, vs vehicle"}, "[4]": {"details": "Week 2 of etanercept, one line per individual patient"}, "[5]": {"details": "Week 6 of etanercept, one line per individual patient"}, "[6]": {"details": "Week 12 of etanercept, one line per individual patient"}, "[7]": {"details": "BAY 87-2243 topical concurrent with IMQ, vs vehicle"}},
  "note": "Several values for one entry are separate records, joined by “and”; a condition that tells them apart may be missing. Identical values can stand only once. Entries after “also recorded” stand apart in the source; their conditions may differ. Like-named read-outs stand apart in the source and are kept apart here.",
  "data": [
    {"compound": "O=CC[C@@H](O)[C@H](O)[C@H](O)CO", "note": "[2DG, 2-Deoxy-D-glucose]", "values": [
      {"measurement": "lactate in culture supernatant, IMQ-treated vs control skin", "setting": "IMQ-treated murine skin", "value": "diminished"},
      {"measurement": "lactate in culture supernatant, IMQ-treated vs control skin", "setting": "IMQ-treated murine skin; listed as 2-DG", "value": "lost"}
    ]},
    {"compound": "Cc1nc(C(=O)NCC(=O)O)c(O)c2ccc(Oc3ccccc3)cc12", "note": "[FG-4592]", "values": [
      {"measurement": "epidermal HIF1α levels (K14+HIF1α+ cells)", "setting": "uninflamed skin", "value": "effectively heightened"},
      {"measurement": "epidermal HIF1α levels (K14+HIF1α+ cells)", "setting": "uninflamed skin; listed as FG-4985", "value": "increased"}
    ]},
    {"compound": "CCOC(=O)Oc1c(OC)cc(C(=O)O[C@@H]2C[C@@H]3CN4CCc5c([nH]c6cc(OC)ccc56)[C@H]4C[C@@H]3[C@H](C(=O)OC)[C@H]2OC)cc1OC", "note": "[syrosingopine]", "values": [
      {"measurement": "cutaneous Type 17 immunity", "setting": "[1]", "value": "decrease"},
      {"measurement": "Type 17 cytokines (Il17a, Il22, Il23a, Il1b, Tnfa)", "setting": "[1]", "value": "sufficient to limit"},
      {"measurement": "cutaneous T cell numbers (dermal CD3+ cells)", "setting": "[1]; vs vehicle", "value": "sufficient to limit"},
      {"measurement": "epithelial (epidermal) thickness", "setting": "[1]; vs vehicle", "value": "sufficient to limit"},
      {"measurement": "cutaneous T cell numbers (dermal CD3+ cells)", "setting": "[1]; [2]", "value": "diminished"},
      {"measurement": "epithelial (epidermal) thickness", "setting": "[1]; [2]", "value": "diminished"},
      {"measurement": "epidermal thickness", "setting": "[1]; [3]", "value": "decrease"},
      {"measurement": "dermal CD3+ cells", "setting": "[1]; treatment begins on day 3 of IMQ application, vs vehicle, listed as MCT1/MCT4 inhibitor", "value": "diminished"}
    ]},
    {"compound": "etanercept", "values": [
      {"measurement": "cutaneous Type 17 cells", "setting": "epidermal HIF1α; etanercept responsive patients", "value": "reduction"},
      {"measurement": "epidermal hyperplasia (epidermal thickness)", "setting": "epidermal HIF1α; etanercept-responsive patients, post-treated vs pre-treated lesional skin", "value": "reduced epidermal hyperplasia"},
      {"measurement": "expression of (nuclear) epidermal HIF1α", "setting": "epidermal HIF1α; post-treated vs pre-treated lesional PsO epidermis, responsive patients", "value": "lower expression; also recorded: reduced"},
      {"measurement": "BSA", "setting": "PsO patients; [4]", "value": "9 and 22 and 15 (2×) and 11 and 12 and 76 and 29 and 19 and 20"},
      {"measurement": "Static Physician's Global Assessment (SPGA)", "setting": "PsO patients; [4]", "value": "3 (6×) and 2 (2×) and 4 (2×)"},
      {"measurement": "PASI", "setting": "PsO patients; Week 2 of etanercept, one line per individual patient (Patient 28-40)", "value": "9.5 and 3.9 and 8.1 and 9.4 and 14.3 and 31.5 and 17.4 and 18.8 and 10.7 and 10.8"},
      {"measurement": "BSA", "setting": "PsO patients; [5]", "value": "8 (2×) and 4 and 15 and 11 and 39 and 25 and 13 and 18 and 16"},
      {"measurement": "PASI", "setting": "PsO patients; [5]", "value": "7.4 and 2.7 and 4.8 and 8.4 and 4.4 and 15 and 6.6 and 12.3 and 8.2 and 4.5"},
      {"measurement": "Static Physician's Global Assessment (SPGA)", "setting": "PsO patients; [5]", "value": "3 (3×) and 1 and 2 (6×)"},
      {"measurement": "BSA", "setting": "PsO patients; [6]", "value": "6 and 3 (2×) and 10 and 15 and 27 and 1 and 7 and 18 and 8"},
      {"measurement": "PASI", "setting": "PsO patients; [6]", "value": "4.5 (2×) and 2.7 and 2.4 and 11.6 and 3.2 and 12 and 0 and 2 and 8.4"},
      {"measurement": "Static Physician's Global Assessment (SPGA)", "setting": "PsO patients; [6]", "value": "2 (4×) and 1 (4×) and 3 (2×)"},
      {"measurement": "PASI response achieved", "setting": "PsO patients; cohort of 10 patients, at 12 weeks", "value": "≥ 75"}
    ]},
    {"compound": "Cc1cc(-c2nc(-c3ccc(OC(F)(F)F)cc3)no2)nn1Cc1ccnc(N2CCN(C3CC3)CC2)c1", "note": "[BAY 87-2243]", "values": [
      {"measurement": "epidermal thickness", "setting": "uninflamed skin; mouse, in vivo", "value": "not altered"},
      {"measurement": "epidermal thickness", "setting": "[1]; BAY 87-2243 2 mg/ml gel topical daily from two days prior to and concurrent with IMQ, vs vehicle", "value": "diminished; also recorded: significantly reduced"},
      {"measurement": "dermal T cells (CD3+)", "setting": "[1]; BAY 87-2243 topical concurrent with IMQ, vs control", "value": "reduction; also recorded: significantly lower numbers"},
      {"measurement": "inflammatory Keratin 6 expression (K6 thickness)", "setting": "[1]; [7]", "value": "significantly reduced"},
      {"measurement": "proliferation (Ki67)", "setting": "[1]; [7]", "value": "significantly reduced"},
      {"measurement": "genes associated with glycolytic metabolism, STAT3 activation and epithelial development/differentiation", "setting": "PsO lesional human skin; PsO lesional skin, 10 μM, 24 hours, vs vehicle", "value": "strikingly downregulated"},
      {"measurement": "number of differentially expressed genes (DEGs) compared to vehicle control", "setting": "PsO lesional human skin; PsO lesional skin, 24 hours in culture, FDR<0.05, 10 μM BAY87-2243, SoC 500 nM calcipotriol and 5 μM betamethasone dipropionate", "value": 2921},
      {"measurement": "expression of lactate transporters SLC16A1 (MCT1) and SLC16A3 (MCT4)", "setting": "PsO lesional human skin; human PsO lesional skin culture, 24 hours", "value": "significantly reduced"}
    ]},
    {"compound": "NC(=O)C(=O)[O-].[Na+]", "note": "[sodium oxamate]", "values": [
      {"measurement": "cutaneous Type 17 immunity", "setting": "[1]", "value": "decrease"},
      {"measurement": "Type 17 cytokines (Il17a, Il22, Il23a, Il1b, Tnfa)", "setting": "[1]", "value": "sufficient to limit"},
      {"measurement": "cutaneous T cell numbers (dermal CD3+ cells)", "setting": "[1]; vs vehicle", "value": "diminished; also recorded: sufficient to limit"},
      {"measurement": "epithelial (epidermal) thickness", "setting": "[1]; vs vehicle", "value": "diminished; also recorded: sufficient to limit"},
      {"measurement": "epidermal thickness", "setting": "[1]; [3]", "value": "decrease"},
      {"measurement": "dermal CD3+ cells", "setting": "[1]; treatment begins on day 3 of IMQ application, vs vehicle", "value": "diminished"}
    ]}
  ]
}
